From US20100267822A1, “AURONES AS ESTROGEN RECEPTOR MODULATORS AND THEIR USE IN SEX HORMONE DEPENDENT DISEASES” (priority 2009, published 2010)

Key:
[1] = target: T1, Recombinant human ERalpha protein (Homo sapiens, UniProt P03372); test: [3H] estradiol binding to recombinant human ERalpha (radioligand displacement, MDS cat No. 226010); conditions: test compound 10 μM; 0.5 nM [3H] estradiol; 2 hours at 25° C.; in comparison to the vehicle control (1% DMSO)
T1 construct: purchased MDS Pharma Services 226010; host or cells: insect Sf9 cells (printed as '519')
T1 sequence (P03372 1-595): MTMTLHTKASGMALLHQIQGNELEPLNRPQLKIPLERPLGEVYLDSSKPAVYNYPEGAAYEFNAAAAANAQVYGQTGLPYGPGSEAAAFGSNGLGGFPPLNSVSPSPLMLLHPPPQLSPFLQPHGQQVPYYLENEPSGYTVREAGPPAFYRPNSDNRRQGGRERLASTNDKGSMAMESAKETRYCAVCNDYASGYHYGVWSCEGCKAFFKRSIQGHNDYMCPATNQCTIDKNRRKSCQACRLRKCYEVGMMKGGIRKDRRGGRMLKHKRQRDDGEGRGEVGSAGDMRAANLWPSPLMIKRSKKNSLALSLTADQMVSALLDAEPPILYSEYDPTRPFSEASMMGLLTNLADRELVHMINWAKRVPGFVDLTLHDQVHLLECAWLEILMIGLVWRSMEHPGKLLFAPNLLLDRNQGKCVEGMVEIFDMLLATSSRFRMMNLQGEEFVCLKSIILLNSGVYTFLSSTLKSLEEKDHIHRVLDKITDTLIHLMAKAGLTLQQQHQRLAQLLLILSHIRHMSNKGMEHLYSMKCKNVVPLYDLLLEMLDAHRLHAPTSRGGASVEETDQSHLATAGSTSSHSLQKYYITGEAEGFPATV
Description: (§1) Recombinant human ERalpha protein isolated from insect 519 cells (MDS Pharma Services: cat No. 226010) was incubated with the test substance (dissolved in 1% DMSO) and 0.5 nM [^3H] estradiol for 2 hours at 25° C. in an incubation buffer (10 mM TrisHCl pH 7.4, 0.1% BSA, 10% Glycerol, 1 mM DTT). At the end of the incubation period, receptor-bound [^3H] estradiol was quantified. Stimulating or inhibiting effects equal or larger than 50% in comparison to vehicle control (1% DMSO) were considered to be significant. The final concentration of the test compound was 10 μM.
(§2) The assays described in Examples 4 and 5 were conducted by MDS (catalogue number 226010 for ERalpha and 226050 for ERbeta, respectively) following procedures established in literature (Obourn et al., Biochemistry 1993, 32: 6229-6236).

[2] = target: T2, Recombinant human ERbeta protein (Homo sapiens, UniProt Q92731); test: [3H] estradiol binding to recombinant human ERbeta (radioligand displacement, MDS cat No. 226050); conditions: test compound 10 μM; 0.5 nM [3H] estradiol; 2 hours at 25° C.; in comparison to the vehicle control (1% DMSO)
T2 construct: purchased MDS Pharma Services 226050; host or cells: insect Sf9 cells
Description: as §1, with “ERbeta” for “ERalpha”, “Sf9” for “519”, “226050)” for “226010)”
as §2

T2 sequence (Q92731 whole entry): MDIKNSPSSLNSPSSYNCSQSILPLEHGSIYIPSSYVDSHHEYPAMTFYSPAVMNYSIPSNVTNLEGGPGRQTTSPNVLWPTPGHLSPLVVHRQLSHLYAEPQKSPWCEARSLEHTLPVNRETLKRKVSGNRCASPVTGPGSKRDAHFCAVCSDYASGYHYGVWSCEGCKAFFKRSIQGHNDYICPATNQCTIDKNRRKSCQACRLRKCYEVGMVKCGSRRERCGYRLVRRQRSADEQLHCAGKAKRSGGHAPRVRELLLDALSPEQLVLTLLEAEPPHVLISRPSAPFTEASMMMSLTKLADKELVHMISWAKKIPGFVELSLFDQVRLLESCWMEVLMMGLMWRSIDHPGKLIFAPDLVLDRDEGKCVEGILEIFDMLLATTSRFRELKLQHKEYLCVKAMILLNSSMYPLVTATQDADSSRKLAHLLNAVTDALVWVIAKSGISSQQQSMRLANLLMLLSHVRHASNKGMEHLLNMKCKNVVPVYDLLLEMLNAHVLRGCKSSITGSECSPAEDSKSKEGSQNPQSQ

| inhibition at 10 µM [1] [%] | inhibition at 10 µM [2] [%] | SMILES |
| --- | --- | --- |
| 2 | 13 | O=C1/C(=C/c2ccc(O)cc2O)Oc2cc(O)cc(O)c21 [SM29 (3), 2′,4,4′,6-Tetrahydroxyaurone] |
| 18 | 91 | O=C1/C(=C/c2ccc(O)cc2)Oc2cc(O)cc(O)c21 [SM30 (3), 4,4′,6-Trihydroxyaurone] |
